Reference: US20140315972A1, “RS)-2-(2-oxo-4-phenylpyrrolidin-1-yl)acetamide compound having modulatory activity with a commensurate effect, pharmaceutical substance (variants) and its application, composition (variants) thereof” (priority 2011, published 2014)
Several values for one entry are separate records, joined by “and”; a condition that tells them apart may be missing. Identical values can stand only once. Marks after values point to notes of the source that are not given here.

How the values were obtained:
patients [1] = assay: Topical solution on periodontal, enamel and dentin condition; format: in vivo, human; settings: for Efficacy on a 4-point scale (periodontal, enamel and dentin condition): humans, topical
From the text: Studies of the effects of Phenotropil on condition of paradontium, enamel and dentin with topic application involved men and women (45-54 years) diagnosed with periodontitis, parodontosis and caries. Enrollment of groups by separate indicators in this age failed. In the vast majority of subjects, the diseases were combined. The gender ratio in groups was: 30.0% men and 70.0% women, the ratio of smokers to non-smokers 60:40, the number of female smokers was higher than male smokers by 35.0%. All patients received every three days the required amount of 0.1%, 0.2% or 0.3% solution of Phenotropil or placebo. The solutions were applied daily as dental trays (for 30 sec.) in the morning and evening at 30 ml per application for 30 days. Food and drinks intake, including water, were not recommended for 2 hours after the procedure. All patients underwent a dental check-up and standard hygienic treatment with removing plaque and dental scale and lavaging the gingival pockets with 1% Phenotropil solution. For each subject, the studied parameters were recorded; the aggregate integral indicator of the general periodontal condition of enamel and dentin was calculated, in the negative scores. The examinations were conducted once a week throughout the period of monotherapy. Simultaneous studies were conducted for evaluation of lipid peroxidation state in samples of saliva, at the baseline examination and after the course of therapy.
The positive effect of treatment with Phenotropil was observed after about 14 days and intensified in the course of therapy. Efficacy after one month of treatment with the drug was the highest and most evident at the initial stages of disease and moderate severity of […]. Effect on periodontitis was apparent, but less pronounced. Treatment of periodontitis probably requires a longer course and administration of Phenotropil tablets according to the usual regime to modulate the general functional state of the body. The ranking evaluation of efficacy (0—no effect, 1—slightly pronounced effect below 30.0% in the group, 2—average degree of efficacy from 30.0 to 50.0%, 3—high efficacy, above 50.0%) was established by an integral indicator of the aggregate of all the parameters tested.

mice [2] = assay: Hypobaric hypoxia in pressure chamber, adult mice; format: in vivo; settings: for Duration of life: adult mice, hypobaric hypoxia
patients [3] = assay: Acneiform rash, topical solution; format: in vivo, human; settings: for Efficacy expressed in % (acne rush during hormonal alteration): humans, topically 0.1% aqueous solution, baseline control = 100
Protocol: A study of effect of Phenotropil on the scalp and face skin in seborrhea oleosa and on the scalp skin in dry seborrhea, as well in the mixed form, was performed on mixed groups of both sexes (15-37 years). The 0.1% Phenotropil solution was used. In the group with mixed form, additional Phenotropil tablets were administered at a dose of 100 mg per day (in the morning). The baseline examinations were used as control. The prepared samples were rubbed into the scalp once a day 1 or 2 hours before bedtime. In the case of acneiform rash, the skin was wiped in the morning and evening by cotton pads soaked (as usual lotion) by 0.1% aqueous Phenotropil. Washing the hair using shampoo was not recommended. A neutral baby soap “Alice” by OAO Svoboda and the rinse prepared with 25 ml of lemon juice and 100 mg Phenotropil powder per 1000.0 ml water were used. Studies were conducted for 28 calendar days with monitoring examinations every 14 days. In the dry seborrhea group, three patients withdrew from the study after two weeks due to reluctance to undergo further examination; they found it difficult to comply with the regime of the detergents use. The skin state was assessed by a 4-point system, where 0—absent, 1—the effect intensity less than 50.0%, 2—the effect intensity more than 50.0%, 3—the effect intensity more than 80% but less than 100.0% of the cases.

mice [4] = settings: animals; prior art Phenotropil products; cited from earlier work
mice [5] = assay: Tremor caused by arecoline; format: in vivo; settings: for Duration of tremor: mice, arecoline 25 mg/kg
From the text: Studies have been conducted on white outbred male mice (18-24 g), in comparison with the olanzapine (Zyprexa) with intraperitoneal injection.

mice [6] = assay: Toxic effect of ethanol (lateral position, lethal dose); format: in vivo; settings: 25.0-200 mg/kg
From the text: The antitoxic, sobering and anticraving, activity, as well as the effect of Phenotropil in abstinence was studied on white outbred male rats (weighing 180-220 g) and male mice (weighing 18-24 g) in chronic alcoholism. […] Alcoholized rats after four months of alcoholism and treatment with Phenotropilom voluntarily give up intake of alcohol (anticraving activity) with free choice of water and alcohol (Table 11).

Stability during storage = format: physicochemical; settings: sterile 0.001-3% solutions with cyclodextrin or Tween, ampoules
Protocol: The resulting compositions are stable. The studies were conducted in accordance with regulatory requirements for determination when stored in natural conditions (in a dry, dark place at a temperature not exceeding 30° C.) and using the standard method of accelerated aging.
The crystalline powder of the Phenotropil substances is not volatile, has white, rarely white to slightly yellowish or slightly cream color, bitter taste (bitter taste that disappears in the mouth rather quickly after dissolution, leaving no unpleasant sensations). In the related products, the bitter taste persists. The Compounds are sparingly soluble in water and saline, moderately soluble in 96.0% alcohol and chloroform. Readily soluble in water and saline under heating, but the solutions are not stable during cooling and storage under normal conditions (not more than 2 hours, which is acceptable for the extemporaneous preparations and research), moderately soluble in 5.0% glucose solution, dissolve well in the presence of solubilizers and emulsifiers. Tween80 and cyclodextrins increase solubility in water, especially Tween80, while cyclodextrins have limitations by concentration. […]

mice [7] = assay: Haloperidol-induced catalepsy; format: in vivo; settings: for decrease of catalepsy severity vs control: 300 mg/kg; for Catalepsy: mice
Protocol: Duration of catalepsy was measured in seconds, after 60, 120 and 180 minutes after the drug administration. Phenotropil was administered intraperitoneally at doses of 50, 100 and 300 mg/kg 15 minutes after haloperidol 0.5 mg/kg. Haloperidol induced catalepsy growing over time. […] At a dose of 50 mg/kg, duration of the catalepsy after 180 min was only 4.8 seconds as compared to controls (63.4 seconds). […] Phenotropil markedly counteracts haloperidol-induced catalepsy, indicating its antiparkinsonian activity.

NC(=O)CN1CC(c2ccccc2)CC1=O (racemic) [Compound 1, (RS)-2-(2-oxo-4-phenylpyrrolidine-1-yl)acetamide]
smokers who quit smoking at the third week of therapy (patients [1]; 0.1-0.3% solution as dental trays, 30 days): 25.0%
Efficacy on a 4-point scale (periodontal, enamel and dentin condition) (patients [1]; Phenotropil 1%): 2* (average degree of efficacy from 30.0 to 50.0%)
Efficacy on a 4-point scale (periodontal, enamel and dentin condition) (patients [1]; Phenotropil 2%): 3* (high efficacy, above 50.0%)
Efficacy on a 4-point scale (periodontal, enamel and dentin condition) (patients [1]; Phenotropil 3%): 3* (high efficacy, above 50.0%)
increase of survival time vs control (mice [2]; 50 mg/kg): 65.0%
increase of survival time vs control (mice [2]; 100 mg/kg): 147.8%
increase of survival time vs control (mice [2]; 300 mg/kg): 591.0%
Duration of life (mice [2]; 50 mg/kg): 3.8 ± 0.5 min
Duration of life (mice [2]; 100 mg/kg): 5.7 ± 1.2 min
Duration of life (mice [2]; 300 mg/kg): 15.9 ± 0.4 min
effect on acne rash (patients [3]; 0.1% solution, one month): 79-84%
Efficacy expressed in % (acne rush during hormonal alteration) (patients [3]; dry skin): −84 * %
Efficacy expressed in % (acne rush during hormonal alteration) (patients [3]; oily skin): −79 * %
LD50 (mice [4]): 800 mg/kg
reduction of duration of tremor (mice [5]; 200 mg/kg): 63%
reduction of duration of tremor (mice [5]; 300 mg/kg): 50%
Duration of tremor (mice [5]; 200 mg/kg): 153 ± 27 s
Duration of tremor (mice [5]; 300 mg/kg): 208 ± 36 s
toxic effect of ethanol (lateral position indicator and lethal dose) (mice [6]): reduced tenfold
storage stability of sterile solutions (Stability during storage): at least 12 months
decrease of catalepsy severity vs control (mice [7]; 180 minutes): decreased threefold
decrease of catalepsy severity vs control (mice [7]; after the 60 min point): 2.6 times
Catalepsy (mice [7]; haloperidol 0.5 mg/kg + 50 mg/kg i.p., 120 min): 8.5 ± 3.5 s
Catalepsy (mice [7]; haloperidol 0.5 mg/kg + 50 mg/kg i.p., 180 min, listed as Phenotropil): 4.8 s and 4.8 ± 2.1 s
Catalepsy (mice [7]; haloperidol 0.5 mg/kg + 100 mg/kg i.p., 120 min): 2.0 ± 1.0 s
Catalepsy (mice [7]; haloperidol 0.5 mg/kg + 100 mg/kg i.p., 180 min): 0.0 ± 0.0 s
Catalepsy (mice [7]; haloperidol 0.5 mg/kg + 300 mg/kg i.p., 60 min): 6.6 ± 1.9 s
Catalepsy (mice [7]; haloperidol 0.5 mg/kg + 300 mg/kg i.p., 120 min): 10.6 ± 4.5 s
Catalepsy (mice [7]; haloperidol 0.5 mg/kg + 300 mg/kg i.p., 180 min): 21.4 ± 8.4 s
